From patent US4490393A, “Thiazolylurea derivatives, a process for preparing same and a pharmaceutical composition containing same” (Mitsui Toatsu Kagaki Kabushiki Kaisha, priority 1981, dated 1984)
Where a name gives a salt, the structure may show the parent alone.

test system: delayed hypersensitivity induced by picryl chloride; assay: Reinforcement Test of Delayed Hypersensitivity (Test Example 1); format: in vivo, ICR male mice; conditions: ICR mice, oral 50 mg per Kg simultaneously with sensitization; 24 hours after challenging; average of both pinnae of eight mice; * P<0.05, ** P<0.01 vs control
Source text: The delayed hypersensitivity induced on a mouse when picryl chloride(2-chloro-1,3,5-trinitrobenzene) is coated on the skin of the mouse is known as a typical cellular immunity.
This test system was used for the reinforcement tests of the delayed hypersensitivity.
Groups of eight ICR male mice, each having a body weight of about 30 g or so, were used for the test.
Sensitization was effected by coating a 3% solution of picryl chloride in a 4/1 mixture of olive oil and acetone on the shaved abdomen of each of the mice.
Simultaneously with the sensitization, a solution or suspension of a compound of the present invention dissolved or suspended in a 0.2% solution of carboxymethylcellulose in a physiological saline was orally administered to the mouse at a dose of 50 mg per Kg of its body weight. To each mouse of a control group, was similarly administered a 0.2% carboxymethylcellulose solution in a physiological saline.
The delayed hypersensitivity was induced 7 days after the sensitization by pinching each of the pinnae of each mouse with a pair of forceps whose tip portions were wrapped with a felt impregnated with a 1% solution of picryl chloride in olive oil and coating the pinnae with the solution. The thickness of each pinna was measured before the challenging and 24 hours after the challenging and the ratio of increase of the thickness (average value of both of the pinnae of the eight mice) is shown in Table 1.
For comparison, a similar test was carried out using Levamisole hydrochloride. The results thereof are also shown.
F.t tests were carried out on the thus-obtained test results.

| Compound | Ratio of Increase of Pinna Thickness |
| --- | --- |
| c1ccc([C@H]2CN3CCSC3=N2)cc1 [Levamisole.HCl, Levamisole hydrochloride, reference compound] | 31.2% |
| O=C(Nc1nc(-c2ccccc2)cs1)Nc1nc(-c2ccccc2)cs1 [drawing 8] | 37.5% |
| Cc1ccc(-c2csc(NC(=O)Nc3nc(-c4ccc(C)cc4)cs3)n2)cc1 [drawing 9] | 36.1% |
| COc1ccc(-c2csc(NC(=O)Nc3nc(-c4ccc(OC)cc4)cs3)n2)cc1 [drawing 10] | 31.7% |
| CSc1sc(NC(=O)Nc2nc(-c3ccccc3)c(SC)s2)nc1-c1ccccc1 [drawing 11] | 29.0% |
| Cc1cc(NC(=O)Nc2nc(-c3ccccc3)cs2)no1 [drawing 12] | 37.8% |
| O=C(Nc1ccccn1)Nc1nc(-c2ccccc2)cs1 [drawing 13] | 25.4% |

test system: adjuvant arthritis caused by the injection of a Mycobacterium tuberculosis adjuvant; assay: Adjuvant Arthritis Test (Test Example 2); format: in vivo, SD male rats; conditions: SD rats, subcutaneous 5 mg per Kg, 9 times; average value from 16th to 20th days; left hind leg; * P<0.05, ** P<0.01 vs control
Source text: The adjuvant arthritis in rats caused by the injection of a Mycobacterium tuberculosis adjuvant is often utilized for a model test of chronic rheumatoid arthritis in human.
The mechanism of manifestation of this disease has not completely been elucidated, but it is known that cellular immunity plays an important role. The immuno-modulating activity of the compounds of the present invention was investigated in accordance with this known adjuvant arthritis test.
8-Week-old SD male rats were used for the test. In 0.1 ml of fluid paraffin, 0.4 mg of dry dead cells of Mycobacterium tuberculosis were suspended, and the suspension was injected under the heel skin of the right hind leg of each rat. Each of the compounds of the present invention was subcutaneously administered 9 times in total before and after the injection of the adjuvant. Each of the compounds of the present invention was dissolved or suspended in a 0.2% solution of carboxymethylcellulose in physiological saline and administered to each rat at a dose of 5 mg per Kg of the body weight. The swollen volume of the left hind leg was measured during the period of from the day of injection to the day of completion of the test, and the swelling ratio was calculated. For comparison, a similar test was conducted using Levamisole hydrochloride. F.t tests were carried out on the test results obtained.

| Compound | Swell suppression ratio to control group |
| --- | --- |
| c1ccc([C@H]2CN3CCSC3=N2)cc1 [Levamisole.HCl, Levamisole hydrochloride, reference compound] | 19.8% |
| O=C(Nc1nc(-c2ccccc2)cs1)Nc1nc(-c2ccccc2)cs1 [drawing 14] | 35.7% |
| Cc1ccc(-c2csc(NC(=O)Nc3nc(-c4ccc(C)cc4)cs3)n2)cc1 [drawing 15] | 29.3% |
| COc1ccc(-c2csc(NC(=O)Nc3nc(-c4ccc(OC)cc4)cs3)n2)cc1 [drawing 16] | 37.5% |
| CSc1sc(NC(=O)Nc2nc(-c3ccccc3)c(SC)s2)nc1-c1ccccc1 [drawing 17] | 28.8% |
| Cc1cc(NC(=O)Nc2nc(-c3ccccc3)cs2)no1 [drawing 18] | 26.6% |
| O=C(Nc1ccccn1)Nc1nc(-c2ccccc2)cs1 [drawing 19] | 34.6% |

test system: ddY male mice; assay: Acute Toxicity Test through Oral Administration (Test Example 3); format: in vivo; conditions: observed for 7 days
Source text: To each of a group of five ddY male mice, was orally administered a medicine dissolved or suspended in physiological saline.

| Compound | estimated LD50 |
| --- | --- |
| c1ccc([C@H]2CN3CCSC3=N2)cc1 [Levamisole.HCl, Levamisole hydrochloride, reference compound] | 200 to 300 mg/kg |
